{"source": "paper PMC4410085", "about": "(Bioorganic & medicinal chemistry, 2015)", "key": {"[1]": {"system": "A-10 cells", "test": "Loss of cellular microtubules, indirect immunofluorescence", "type": "cell-based", "settings": "result in words"}, "[2]": {"system": "Bovine brain tubulin", "test": "Tubulin assembly assay", "type": "biochemical", "settings": "read-out: Inhibition tubulin assembly IC50; ± SD; purified bovine brain tubulin"}, "[3]": {"biological_target": "PDGFR-β (Homo sapiens, UniProt P09619)", "sequence (P09619 33-1106)": "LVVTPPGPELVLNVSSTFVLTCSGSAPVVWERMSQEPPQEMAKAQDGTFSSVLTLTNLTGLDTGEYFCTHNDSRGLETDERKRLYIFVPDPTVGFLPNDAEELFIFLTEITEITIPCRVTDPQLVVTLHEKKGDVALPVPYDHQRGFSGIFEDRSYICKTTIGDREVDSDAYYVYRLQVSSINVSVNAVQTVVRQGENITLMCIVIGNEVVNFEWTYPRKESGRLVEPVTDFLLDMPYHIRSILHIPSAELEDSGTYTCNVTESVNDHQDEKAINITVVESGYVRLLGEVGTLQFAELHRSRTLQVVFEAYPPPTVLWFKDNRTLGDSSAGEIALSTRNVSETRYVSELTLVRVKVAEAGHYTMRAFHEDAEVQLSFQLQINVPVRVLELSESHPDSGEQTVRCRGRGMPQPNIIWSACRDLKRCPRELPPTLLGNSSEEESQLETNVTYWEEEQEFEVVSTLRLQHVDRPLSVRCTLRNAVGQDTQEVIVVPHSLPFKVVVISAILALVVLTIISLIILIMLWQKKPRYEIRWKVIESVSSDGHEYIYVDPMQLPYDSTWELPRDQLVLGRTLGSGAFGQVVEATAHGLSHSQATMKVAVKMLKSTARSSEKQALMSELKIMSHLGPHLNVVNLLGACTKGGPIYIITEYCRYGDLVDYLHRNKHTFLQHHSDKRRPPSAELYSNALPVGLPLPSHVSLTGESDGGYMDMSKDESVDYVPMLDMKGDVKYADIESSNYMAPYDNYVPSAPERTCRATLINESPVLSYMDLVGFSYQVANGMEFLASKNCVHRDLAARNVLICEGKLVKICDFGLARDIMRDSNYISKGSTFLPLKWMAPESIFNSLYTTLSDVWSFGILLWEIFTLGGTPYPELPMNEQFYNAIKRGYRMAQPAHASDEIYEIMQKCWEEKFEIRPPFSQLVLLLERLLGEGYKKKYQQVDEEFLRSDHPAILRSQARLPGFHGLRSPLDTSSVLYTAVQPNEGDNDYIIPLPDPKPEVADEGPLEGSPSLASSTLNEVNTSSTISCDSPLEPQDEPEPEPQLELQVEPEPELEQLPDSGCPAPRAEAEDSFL", "test": "Phosphotyrosine ELISA cytoblot, PDGFR-β", "type": "cell-based", "settings": "PDGFR-β expressing cells, versus sunitinib"}}}
{"compound": "COc1ccc(N(C)c2nc(C)nc3oc(C)cc23)c(OC)c1", "note": "[Compound 2, N-(2,4-dimethoxyphenyl)-N,2,6-trimethylfuro[2,3-d]pyrimidin-4-amine]", "values": [{"measurement": "effect on cellular microtubules", "setting": "[1]", "value": "dose-dependent loss of cellular microtubules"}]}
{"compound": "CCOc1ccc(N(C)c2nc(C)nc3oc(C)cc23)cc1", "note": "[Compound 12, N-(4-ethoxyphenyl)-N,2,6-trimethylfuro[2,3-d]pyrimidin-4-amine]", "values": [{"measurement": "effect on cellular microtubules", "setting": "[1]", "value": "dose-dependent loss of cellular microtubules"}]}
{"compound": "COc1ccc2c(c1)CCN2c1nc(C)nc2oc(C)cc12", "note": "[Compound 8, 4-(5-methoxyindolin-1-yl)-2,6-dimethylfuro[2,3-d]pyrimidine]", "values": [{"measurement": "effect on cellular microtubules", "setting": "[1]", "value": "no effect on cellular microtubules"}]}
{"compound": "COc1ccc(/C=C\\c2cc(OC)c(OC)c(OC)c2)cc1O", "note": "[CA-4]", "values": [{"measurement": "IC50", "setting": "[2]", "value": "1000 ± 90", "unit": "nM"}]}
{"compound": "Cc1nc(N(C)c2ccc3occc3c2)c2cc(C)oc2n1", "note": "[Compound 7, N-1-benzofuran-5-yl-N,2,6-trimethylfuro[2,3-d]pyrimidin-4-amine]", "values": [{"measurement": "effect on cellular microtubules", "setting": "[1]", "value": "dose-dependent loss of cellular microtubules"}, {"measurement": "fold better than sunitinib, PDGFR-β", "setting": "[3]", "value": "about 4 fold"}]}
{"compound": "COc1ccc(N(C)c2nc(C)nc3oc(C)cc23)cc1OC", "note": "[Compound 3, N-(3,4-dimethoxyphenyl)-N,2,6-trimethylfuro[2,3-d]pyrimidin-4-amine]", "values": [{"measurement": "effect on cellular microtubules", "setting": "[1]", "value": "dose-dependent loss of cellular microtubules"}]}
{"compound": "COc1ccc2c(c1)CCCN2c1nc(C)nc2oc(C)cc12", "note": "[Compound 10, 4-(6-methoxy-3,4-dihydroquinolin-1(2H)-yl)-2,6-dimethylfuro[2,3-d]pyrimidine]", "values": [{"measurement": "effect on cellular microtubules", "setting": "[1]", "value": "dose-dependent loss of cellular microtubules"}]}
{"compound": "Cc1nc(N(C)c2ccc3c(c2)CCO3)c2cc(C)oc2n1", "note": "[Compound 6, N-(2,3-dihydro-1-benzofuran-5-yl)-N,2,6-trimethylfuro[2,3-d]pyrimidin-4-amine]", "values": [{"measurement": "effect on cellular microtubules", "setting": "[1]", "value": "dose-dependent loss of cellular microtubules"}, {"measurement": "fold better than sunitinib, PDGFR-β", "setting": "[3]", "value": "about 4 fold"}]}
